The LC50 is the concentration lethal to half of the exposed cells or organisms.

The test system of series [1] is obese model mice fed with a high-fat diet. The series can be described thus: Effect of astaxanthin monoester on obese model mice fed with a high-fat diet. In kind it is in vivo, male C57BL/6J strain mice. How it is done:
Astaxanthin was administered to obese model mice fed with a high-fat diet, and the change in body weight, the amount of subcutaneous fat (in the inguinal region and the back), the amount of visceral fat (around the reproductive organs and around the kidney), the liver weight, the blood glucose level, and the insulin concentration in blood were examined in the following manner.
Four week old male C57BL/6J strain mice (SPF) purchased from CHARLES RIVER LABORATORIES JAPAN, INC. were used. The mice were preliminarily fed for 8 days and used for the test after they reached the age of 5 weeks. The mice were divided into three groups of 8 each, that is, a normal diet group, a high-fat diet group, and a high-fat diet+astaxanthin (AX) group, so that the average body weight was equal among the groups.
During the preliminary feeding period, the mice were given an ordinary powder diet (MF, Oriental Yeast Co., Ltd.), and during the test period of 16 weeks, the mice were given the ordinary powder diet or a high-fat diet having the composition shown in Table 2 below. As to drinking water, the mice were allowed to drink freely sterile distilled water from a water supply bottle.
The astaxanthin monoester prepared in Preparation Example 1 was dissolved in an olive oil (Wako Pure Chemical Industries, Ltd.) to prepare a solution containing astaxanthin monoester at a concentration of 60 mg/mL. This solution was administered to the high-fat diet+AX group and the olive oil to the other two groups in a volume of 0.05 mL/10 g body weight every day for 16 weeks from the start of the test (at the age of 5 weeks) to the age of 21 weeks, using a sonde for oral administration in the mice.
During the test period, the body weight was measured once a week using a scale. At the end of the test, the body weight was measured, and thereafter, the mice were fasted overnight and the blood glucose level was measured in the tail of each mouse using OneTouch Ultra™ (manufactured by Life Scan Inc., a blood glucose level measuring device). Next, blood was collected from the heart using a heparinized syringe with heparin Na. Immediately after the collection of blood, blood plasma was separated by centrifugation, and the obtained blood plasma was cryopreserved at −80° C. Then, the liver, the adipose tissue in the inguinal region, the adipose tissue around the reproductive organs, the adipose tissue around the kidney, and the adipose tissue in the back were collected and the weights thereof were measured. Thereafter, the insulin concentration in blood was measured with a commercially available kit (Mouse Insulin ELISA KIT (TMB) (AKRIN-011T): Shibayagi Co., Ltd.), using the blood plasma collected at the end of the test.
The different types of data obtained were expressed as average values±standard errors for each group. In order to test for statistically significant differences between the high-fat diet group and the high-fat diet+AX group or the normal diet group, a multiple comparison test (ANOVA) was performed using an analysis software (Stat View, Abacus Inc., USA), and a comparison between the groups was performed using Fisher's PLSD multiple comparison test. Differences were considered statistically significant when p<0.05.

Series [2] concerns Human umbilical vein endothelial cells (HUVECs). As to the kind of experiment: Measurement of 50% lethal concentration for HUVEC (alamarBlue). It is filed as cell-based. To be noted: 72 hours incubation, 250 μM = maximum concentration dissolved in DMSO. The procedure:
Human umbilical vein endothelial cells (HUVECs) (ATCC CRL-1730) were obtained from American Type Culture Collection and precultivated in an Endothelial Cell Growth Medium (CELL APPLICATIONS, USA) containing 10% bovine fetal serum supplemented with 1% Antibiotic-Antimycotic (GIBCO BRL, USA) under a 5% CO2 atmosphere at 37° C.
A Matrigel matrix (BD Biosciences, USA) was melted and kept at 4° C. on ice, and then, 50 μL of the matrix were transferred to each well of a 96-well tissue culture plate. The plate was incubated at 37° C. for at least one hour to solidify the matrix solution.
On the other hand, the astaxanthin monoester obtained in Preparation Example 1 was dissolved in dimethylsulfoxide (DMSO), and then diluted with distilled water to prepare stock test solutions in which the astaxanthin monoester was contained in 40 (v/v)% DMSO at 25000, 2500, 250, 25, and 2.5 μM, respectively. […]
After the incubation, 20 μL of a 90% alamarBlue reagent were added to individual wells, and incubated for an additional 6 hours. Then, the fluorescence intensity of each well was measured at an excitation wavelength of 530 nm and an emission wavelength of 590 nm using a Spectrafluor Plus plate reader to count the number of living cells. […] The 50% lethal concentration was calculated as the concentration at which the number of living cells was 50% of the number of cells at the start of the experiment.
A general note: Resazurin is reduced to fluorescent resorufin, in cell work by metabolically active cells.

Where [3] appears, read: high-fat diet+AX vs high-fat diet, end of 16-week test, FIG. 2.
The mark [4] stands for this setting: high-fat diet+AX vs high-fat diet, end of 16-week test, FIG. 3.

Regarding astaxanthin monoester, in series [1] (high-fat diet+AX group vs high-fat diet group, oral, every day for 16 weeks, 60 mg/mL in olive oil, 0.05 mL/10 g body weight, FIG. 1), the “change over time in mean body weight” value is listed as “the increase in body weight tended to be suppressed”. In addition, in series [1] (setting [3]), the “mean weight of subcutaneous fat” value is listed as “the accumulation of fat was significantly suppressed” and the “mean weight of visceral fat” value is on record as “the accumulation of fat was significantly suppressed”. In series [1] (setting [4]), the “proportion of the liver weight to body weight” value was “the proportion approached that in the case of the normal diet” and the “proportions of the mean weights of the adipose tissues to mean body weight” value is “the increase was significantly suppressed”. In series [1] (high-fat diet+AX vs high-fat diet, fasted overnight, end of 16-week test, FIG. 5), the blood glucose level result is on record as “maintained at the same level as that of the normal diet group”. The “insulin concentration in blood” value in series [1] (high-fat diet+AX vs high-fat diet, plasma at end of 16-week test, FIG. 4) was “the insulin concentration was considerably suppressed”. The same substance gave an LC50 in series [2] not below 250 µM.

(Values after patent US20070135521A1, “Agent for Preventing Metabolic Syndrome” (YAMAHA HATSUDOKI KABUSHIKI KAISHA, priority 2005, published 2007).)
